Laboratory results as given in patent US4299767A, “Benzodiazepine derivatives” (Hoffmann-La Roche Inc., priority 1978, dated 1981).
Read-outs that look alike come from different tables or passages of the source.

What was measured:
aldosterone = assay: aldosterone-antagonistic properties in adrenalectomised rats (urine volume, sodium and potassium excretion); assay type: in vivo, adrenalectomised female Holtzmann rats; details: for response vs control in vivo at 1 mg/kg / response vs control in vivo at 10 mg/kg / response vs control in vivo at 3 mg/kg / response vs control in vivo at 0.1 mg/kg: Rattus norvegicus, po
Experimental: If benzodiazepine derivatives of formula I are administered to the animals before the treatment with aldosterone, then there is observed, in comparison with the animals which are treated only with aldosterone (control animals), a pronounced increase of the sodium excretion (i.e. the sodium retention caused by aldosterone is antagonised), whereas the potassium excretion and the urine volume are influenced to a lesser extent.
The standard experiment is carried out as follows:
Female Holtzmann rates (150-180 g) are bilaterally adrenalectomised 70 to 74 hours before the beginning of the experiment. After the operation, the animals receive a customary rat dry feed and 0.9% sodium chloride solution for drinking. 16-17 hours before the beginning of the experiment the feed is removed from the animals, but they can still drink, as before, 0.9% sodium chloride solution ad libitum. At the beginning of the experiment the substance to be tested as an aldosterone-antagonist is administered to the animals by means of a stomach probe. 30 minutes later the animals receive a subcutaneous injection of […] of aldosterone. After a further 90 minutes, the urinary bladders of the animals are emptied by careful suprapublic pressure, whereupon the animals are placed individually in metabolic cages without food and without drink. The urine of the animals is then collected for 3hours, whereupon their urinary bladders are once more emptied. The spontaneously excreted urine and the remaining urine obtained at the conclusion of the experiment by pressing-out the urinary bladders are collected in graduated centrifuge glasses. Sodium and potassium concentrations in the urine are determined with a flame photometer.
(§1) The following Table contains results obtained in the previously described experiment with representative benzodiazepine derivatives of formula I. In this Table there are given for each benzodiazepine derivative in question the dosage administered (in mg/kg p.o.) as well as the percentage variation in the urine volume, the sodium excretion and the potassium excretion in comparison with the control animals (i.e. in comparison with the animals treated only with aldosterone). Moreover, the Table contains data relating to the acute toxicity of the benzodiazepine derivatives investigated (LD 50 in mg/kg in the case of a single oral administration to mice).

[1] = acute toxicity, single oral administration to mice; details: mouse, in vivo, p.o.
Description: as §1

[2] = read-out: potassium excretion [K+], in %, based on control animals
[3] = read-out: sodium excretion [Na+], in %, based on control animals
[4] = read-out: urine volume, in %, based on control animals
[5] = aldosterone alone, in comparison with untreated animals

Compound	response vs control in vivo at 1 mg/kg (aldosterone; [2])	response vs control in vivo at 10 mg/kg (aldosterone; [2])	response vs control in vivo at 1 mg/kg (aldosterone; [3])	response vs control in vivo at 10 mg/kg (aldosterone; [3])	response vs control in vivo at 1 mg/kg (aldosterone; [4])	response vs control in vivo at 10 mg/kg (aldosterone; [4])	LD50 [1]	also measured
CC(CO)NC(=O)Nc1ccc2c(c1)C(c1ccccc1F)=NCC(=O)N2C (racemic) [Example 8, rac-1-[5-(o-fluorophenyl)-2,3-dihydro-1-methyl-2-oxo-1H-1,4-benzodiazepin-7-yl]-3-(2-hydroxy-1-methylethyl)urea]	80%	129%	127%	452%	73%	200%	> 5000 mg/kg	–
CNC(=O)Nc1ccc2c(c1)C(c1ccccc1F)=NCC(=O)N2C [Example 1, 1-[5-(o-Fluorophenyl)-2,3-dihydro-1-methyl-2-oxo-1H-1,4-benzodiazepin-7-yl]-3-methylurea]	–	–	–	–	–	–	> 5000 mg/kg	response vs control in vivo at 3 mg/kg (aldosterone; [2]): 84%; response vs control in vivo at 3 mg/kg (aldosterone; [3]): 182%; response vs control in vivo at 3 mg/kg (aldosterone; [4]): 95%
CN1C(=O)CN=C(c2ccccc2F)c2cc(NC(=O)NC(C)(C)C)ccc21 [Example 2, 1-tert.butyl-3-[5-(o-fluorophenyl)-2,3-dihydro-1-methyl-2-oxo-1H-1,4-benzodiazepin-7-yl]urea]	132%	70%	236%	234%	194%	105%	600 to 1200 mg/kg	–
CN1C(=O)CN=C(c2ccccc2F)c2cc(NC(=O)NCc3ccccc3)ccc21 [Example 3, 1-benzyl-3-[5-(o-fluorophenyl)-2,3-dihydro-1-methyl-2-oxo-1H-1,4-benzodiazepin-7-yl]urea]	153%	–	255%	–	139%	–	> 5000 mg/kg	–
CCN(C)C(=O)Nc1ccc2c(c1)C(c1ccccc1F)=NCC(=O)N2C [Example 4, 1-ethyl-3-[5-(o-fluorophenyl)-2,3-dihydro-1-methyl-2-oxo-1H-1,4-benzodiazepin-7-yl]-1-methylurea]	97%	–	291%	–	100%	–	> 5000 mg/kg	–
CN1C(=O)CN=C(c2ccccc2F)c2cc(NC(=O)N3CC3)ccc21 [Example 5, N-[5-(o-fluorophenyl)-2,3-dihydro-1-methyl-2-oxo-1H-1,4-benzodiazepin-7-yl]-1-aziridinecarboxamide]	146%	108%	294%	237%	192%	129%	> 5000 mg/kg	–
CN1C(=O)CN=C(c2ccccc2F)c2cc(NC(=O)N3CCCC3)ccc21 [Example 6, N-[5-(o-fluorophenyl)-2,3-dihydro-1-methyl-2-oxo-1H-1,4-benzodiazepin-7-yl]-1-pyrrolidinecarboxamide]	112%	–	308%	–	184%	–	> 5000 mg/kg	–
CN1C(=O)CN=C(c2ccccc2F)c2cc(NC(=O)NCCO)ccc21 [Example 7, 1-[5-(o-fluorophenyl)-2,3-dihydro-1-methyl-2-oxo-1H-1,4-benzodiazepin-7-yl]-3-(2-hydroxyethyl)urea]	–	–	–	–	–	–	> 5000 mg/kg	response vs control in vivo at 0.1 mg/kg (aldosterone; [2]): 121%; response vs control in vivo at 0.1 mg/kg (aldosterone; [3]): 247%; response vs control in vivo at 0.1 mg/kg (aldosterone; [4]): 85%
CNC(=O)Nc1ccc2c(c1Cl)C(c1ccccc1F)=NCC(=O)N2C [Example 9, 1-[6-chloro-5-(o-fluorophenyl)-2,3-dihydro-1-methyl-2-oxo-1H-1,4-benzodiazepin-7-yl]-3-methylurea]	91%	–	330%	–	178%	–	1250 to 2500 mg/kg	–
CCCCNC(=O)Nc1ccc2c(c1Cl)C(c1ccccc1F)=NCC(=O)N2C [Example 10, 1-butyl-3-[6-chloro-5-(o-fluorophenyl)-2,3-dihydro-1-methyl-2-oxo-1H-1,4-benzodiazepin-7-yl]urea]	104%	–	380%	–	175%	–	> 5000 mg/kg	–
CCN(CC)C(=O)Nc1ccc2c(c1Cl)C(c1ccccc1F)=NCC(=O)N2C [Example 11, 3-[6-chloro-5-(o-fluorophenyl)-2,3-dihydro-1-methyl-2-oxo-1H-1,4-benzodiazepin-7-yl]-1,1-diethylurea]	–	110%	–	236%	–	124%	> 5000 mg/kg	–
CCN(C)C(=O)Nc1ccc2c(c1Cl)C(c1ccccc1F)=NCC(=O)N2C [Example 12, 3-[6-chloro-5-(o-fluorophenyl)-2,3-dihydro-1-methyl-2-oxo-1H-1,4-benzodiazepin-7-yl]-1-ethyl-1-methylurea]	118%	–	278%	–	136%	–	2500 to 5000 mg/kg	–
CN1C(=O)CN=C(c2ccccc2F)c2c1ccc(NC(=O)NCCO)c2Cl [Example 13, 1-[6-chloro-5-(o-fluorophenyl)-2,3-dihydro-1-methyl-2-oxo-1H-1,4-benzodiazepin-7-yl]-3-(2-hydroxyethyl)urea]	110%	–	242%	–	140%	–	> 5000 mg/kg	–
CN(C)C(=O)Nc1ccc2c(c1)C(c1ccccc1F)=NCC(=O)N2C [Example 32, 3-[5-(o-fluorophenyl)-2,3-dihydro-1-methyl-2-oxo-1H-1,4-benzodiazepin-7-yl]-1,1-dimethylurea]	–	91%	–	190%	–	102%	> 5000 mg/kg	–
COc1ccc(NC(=O)Nc2ccc3c(c2)C(c2ccccc2F)=NCC(=O)N3C)cc1 [Example 33, 1-[5-(o-fluorophenyl)-2,3-dihydro-1-methyl-2-oxo-1H-1,4-benzodiazepin-7-yl]-3-(p-methoxyphenyl)urea]	–	145%	–	240%	–	117%	> 5000 mg/kg	–
CCNC(=O)Nc1ccc2c(c1Cl)C(c1ccccc1F)=NCC(=O)N2C [Example 34, 1-[6-chloro-5-(o-fluorophenyl)-2,3-dihydro-1-methyl-2-oxo-1H-1,4-benzodiazepin-7-yl]-3-ethylurea]	–	149%	–	271%	–	156%	2500 to 5000 mg/kg	–
C[C@]12CCC(=O)C=C1CC[C@@H]1[C@@H]2[C@@H](O)C[C@]2(C=O)[C@@H](C(=O)CO)CC[C@@H]12 [aldosterone, reference compound]	–	–	–	–	–	–	–	excreted urine volume (aldosterone; [5]): reduction of the excreted urine volume; potassium excretion (aldosterone; [5]): increased potassium excretion; sodium excretion (aldosterone; [5]): pronounced reduction of the sodium excretion
